Data as given in patent US7732412B2, “Methods of treatment using novel LHRH antagonists having improved solubility properties” (Zentaris GmbH, priority 1999, dated 2010).
pIC50, pKd: −log10 of the molar value. Numbered stars: 1 amine (or outer) side, 2 acyl side, 3 side chain; on linkers, the order of the positions; unused ones are H or OH. Square brackets hold non-standard residues; d marks the D form. Side chains are listed from the residue outwards. Peptide text beside a SMILES is read from it. * marks the point of attachment. NH(4-amidinophenyl) = N=C(N)c1ccc(N*)cc1; dPhe(4-Cl) = N[C@H](Cc1ccc(Cl)cc1)C(=O)O; d2Nal = N[C@H](Cc1ccc2ccccc2c1)C(=O)O; Lys(iPr) = CC(C)NCCCC[C@H](N)C(=O)O; NMeY = CN[C@@H](Cc1ccc(O)cc1)C(=O)O; dCit = NC(=O)NCCC[C@@H](N)C(=O)O; d3Pal = N[C@H](Cc1cccnc1)C(=O)O; Suc = O=C(CCC(=O)[*:2])[*:1]

What was measured:
[1] = molecular target: T1, human LHRH receptor (Homo sapiens, UniProt P30968); experiment: functional assay for antagonistic activity, fos-Luc luciferase reporter gene, stimulation with 1 nM [D-Trp6] LHRH; format: cell-based; parameters: expressed in transfected cells; details: cells stimulated with 1 nM [D-Trp6] LHRH for 6 h; bracket = number of independent experiments
T1 sequence (P30968 1-328): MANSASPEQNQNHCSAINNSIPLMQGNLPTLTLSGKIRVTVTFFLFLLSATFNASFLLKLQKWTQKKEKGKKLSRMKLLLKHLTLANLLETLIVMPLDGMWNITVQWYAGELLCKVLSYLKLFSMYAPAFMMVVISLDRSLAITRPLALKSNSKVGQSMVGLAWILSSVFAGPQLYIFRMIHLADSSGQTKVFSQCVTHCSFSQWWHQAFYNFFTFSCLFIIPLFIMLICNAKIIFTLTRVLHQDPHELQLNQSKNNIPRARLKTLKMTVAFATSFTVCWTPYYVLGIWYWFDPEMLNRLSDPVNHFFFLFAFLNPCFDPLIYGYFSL
Protocol: The assay for the functional characterization of antagonistic analogs of LH-RH was carried out, with some modifications, as described in Beckers et al., “Characterization of gonadotropin-releasing hormone analogs based on a sensitive cellular luciferase reporter gene assay” (1997) Analyt. Biochem. 251, 17-23. The assay uses a reporter gene made by fusing the c-fos immediate-early gene promoter to a DNA sequence encoding luciferase (Luc). A recombinant cell line that expresses the human LH-RH. receptor is stably transfected with the fos-Luc reporter gene. Transcription of the fos-Luc fusion gene and synthesis of the Luc protein is induced in the cells in a dose-dependent manner by LH-RH and other LH-RH agonists that bind and signal through the human LH-RH receptor. Peptide LH-RH antagonists such as the compounds of the invention bind to cellular LH-RH receptors and inhibit this stimulation. The antagonistic potency (IC50) of peptide LH-RH antagonists as determined by the assay generally correlates well with the binding affinity (KD) of the LH-RH antagonists for LH-RH receptor as determined from ligand binding experiments.
Cells containing the fos-Luc reporter gene that express the human LH-RH receptor were cultured for 24 h in microtitre plates using DMEM with additives and 1% (v:v) FCS (10,000 cells per well). The cells were then stimulated with 1 nM [D-Trp^6] LHRH for 6 h. Peptide LH-RH antagonist compounds according to the invention were added before the stimulation, and the cells were lysed at the end for quantification of the cellular Luc activity. The calculation of the IC50 values from dose-effect curves was carried out by non-linear regression analysis using the Hill model (Programme EDX 2.0 from C. Grunwald, Arzneimittelwerk Dresden).
The quantification of the Luc activity was carried out in duplicate essentially as described (Promega Technical Bulletins #101/161) using the respective luciferase assay system (Promega E4030). Owing to addition of coenzyme A (CoA), an oxidation of luciferyl-CoA takes place with advantageous kinetics. After the removal of the culture medium from the microtitre plate, the cells were lysed by addition of 100 μl of lysis buffer (25 mM tris-phosphate pH 7.8, 2 mM dithiothreitol, 2 mM 1,2-diaminocyclohexane-N,N,N′,N′-tetraacetic acid (CDTA), 10% (v:v) glycerol, 1% (v:v) Triton X-100). After incubation at room temperature for 15 min, 10 μl of cell lysate were transferred into a white microtitre plate suitable for luminometric detection (Dynatech). The enzymatic reaction was initiated by addition of 50 μl of assay buffer (20 mM tricine pH 7.8, 1.07 mM (MgCO3)4Mg(OH)2, 2.67 mM MgSO4, 0.1 mM ethylene-diaminetetraacetic acid (EDTA), 33.3 mM dithiothreitol, 270 μM coenzyme A, 470 μM glow-worm (Photinus pyralis) luciferin, 530 μM rATPNa2). After one minute, the luminescence was determined for a total time of one second with a signal half-life of five minutes using the EG&G Berthold MicroLumat LB 96 P.

[2] = molecular target: T1, human LHRH receptor; experiment: receptor binding assay, displacement of [125I]-cetrorelix on intact cells; parameters: expressed in transfected cells; host or cells: LTK cells (stably transfected), intact cells; details: LTK cells expressing human LHRH receptor, 1 h at 37° C.; bracket = number of independent experiments; read-out: KD (binding affinity)
Text: The compounds according to formula I of the invention were investigated for their receptor binding. The assay method closely followed the process described in Beckers et al., “Selection and characterization of mammalian cell lines with stable overexpression of human pituitary receptors for gonadoliberin (GnRH)” (1995) Eur. J. Biochem., 231, 535-543. Cetrorelix obtained according to the synthesis disclosed above was iodinated with [^125I] (Amersham; specific activity 80.5 Bq/fmol) using the IodoGen reagent (Pierce). The reaction mixture was purified by reverse-phase high-performance liquid chromatography with exchanged phases, monoiodinated cetrorelix being obtained without unlabelled peptide. In each case, about 80% of the [^125I]-cetrorelix was capable of specific receptor association.
The receptor binding assay was carried out under physiological conditions as described (Beckers et al., 1995) using intact cells. Subconfluent cultures of stably transfected LTK cells, which express the human LHRH receptor, were separated off by incubation in NaCl/Pi (137 mM NaCl, 2.7 mM KCl, 8.1 mM Na2HPO4, […])/1 mM EDTA and collected by centrifugation. The cell pellet was resuspended in binding buffer (DMEM without H2CO3, with 4.5 g/l of glucose, 10 mM Hepes pH 7.5, 0.5% (mass/volume) BSA, 1 g/l bacitracin, 0.1 g/l SBTI, 0.1% (mass/volume) NaN3). For displacement assays, 0.25×10^6 cells/100 μl were incubated with approximately 225 pM of the [^125I]-cetrorelix (specific activity 5-10×10^5 dpm/pmol) and various concentrations of unlabelled compound according to the invention as competitor. The cell suspension in 100 μl of binding medium was layered in 400 μl assay tubes over 200 μl of 84% by volume silicone oil (Merck Type 550)/16% by volume paraffin oil. […] Cell pellet and supernatants were then analysed by counting the y radiation. The amount of non-specifically bound material was determined at a final concentration of 1 μM with inclusion of unlabelled cetrorelix and was typically ≦10% of the total bound material. […]

| SMILES | pIC50 [1] | pKd [2] |
| --- | --- | --- |
| CC(=O)N[C@H](Cc1ccc2ccccc2c1)C(=O)N[C@H](Cc1ccc(Cl)cc1)C(=O)N[C@H](Cc1cccnc1)C(=O)N[C@@H](CO)C(=O)N(C)[C@@H](Cc1ccc(O)cc1)C(=O)N[C@H](CCCCNC(=O)CCC(=O)Nc1ccc(C(=N)N)cc1)C(=O)N[C@@H](CC(C)C)C(=O)N[C@@H](CCCCNC(C)C)C(=O)N1CCC[C@H]1C(=O)N[C@H](C)C(N)=O [Example 2, Ac-D-Nal(2)^1-D-Cpa^2-D-Pal(3)^3-Ser^4-N-Me-Tyr^5-D-Lys(B)^6-Leu^7-Lys(iPr)^8-Pro^9-D-Ala^10-NH2] (Ac-[d2Nal][dPhe(4-Cl)][d3Pal]S[NMeY][dK]([Suc-NH(4-amidinophenyl)])L[Lys(iPr)]P[dA]-NH2) | 9.16 | 9.74 |
| CC(=O)N[C@H](Cc1ccc2ccccc2c1)C(=O)N[C@H](Cc1ccc(Cl)cc1)C(=O)N[C@H](Cc1cccnc1)C(=O)N[C@@H](CO)C(=O)N(C)[C@@H](Cc1ccc(O)cc1)C(=O)N[C@H](CCCCNC(=O)CCC(=O)Nc1ccc(C(=N)N)cc1)C(=O)N[C@@H](CC(C)C)C(=O)N[C@@H](CCCNC(=N)N)C(=O)N1CCC[C@H]1C(=O)N[C@H](C)C(N)=O [Example 3, Ac-D-Nal(2)^1-D-Cpa^2-D-Pal(3)^3-ser^4-N-Me-Tyr^5-D-Lys(B)^6-Leu^7-Arg^8-Pro^9-D-Ala^10-NH2] (Ac-[d2Nal][dPhe(4-Cl)][d3Pal]S[NMeY][dK]([Suc-NH(4-amidinophenyl)])LRP[dA]-NH2) | 9.31 | 9.81 |
| CC(=O)N[C@H](Cc1ccc2ccccc2c1)C(=O)N[C@H](Cc1ccc(Cl)cc1)C(=O)N[C@H](Cc1cccnc1)C(=O)N[C@@H](CO)C(=O)N[C@@H](Cc1ccc(O)cc1)C(=O)N[C@H](CCCNC(N)=O)C(=O)N[C@@H](CC(C)C)C(=O)N[C@@H](CCCNC(=N)N)C(=O)N1CCC[C@H]1C(=O)N[C@H](C)C(N)=O [cetrorelix, Ac-D-Nal(2)^1-D-Cpa^2-D-Pal(3)^3-Ser^4-Tyr^5-D-Cit^6-Leu^7-Arg^8-Pro^9-D-Ala^10-NH2, reference compound] (Ac-[d2Nal][dPhe(4-Cl)][d3Pal]SY[dCit]LRP[dA]-NH2) | 9.70 | 9.77 |
